The text below walks through data of patent US8536172B2, “Inhibitors of JNK” (Roche Palo Alto LLC, priority 2009, dated 2013).

As usually defined, the IC50 is the concentration needed to halve the response being measured. Low readings indicate higher potency, high ones lower potency.

The experiment addresses Human JNK2α2 (Homo sapiens (Human), UniProt P45984). Nature of the experiment: JNK assay in vitro: phosphorylation of GST-ATF2 (19-96) with [γ-33P] ATP, JNK2. In kind it is biochemical. The settings on record: 1 nM enzyme, 1 μM ATF2, 8 μM ATP (Km), 30° C. 30 min. The protocol:
JNK activity was measured by phosphorylation of GST-ATF2 (19-96) with [γ-^33P] ATP. […] Human JNK2α2 assay contains 1 nM enzyme, 1 μM ATF2, 8 μM ATP with 1 uCi [γ-^33P] ATP. Human JNK1α1 assay contains 2 nM enzyme, 1 μM ATF2, 6 μM ATP with 1 μCi [γ-^33P] ATP. Human JNK3 (Upstate Biotech #14-501M) assay contains 2 nM enzyme, 1 μM ATF2, 4 μM ATP with 1 μCi [γ-^33P] ATP. The enzyme assay was carried out in the presence or absence of several compound concentrations. JNK and compound were pre-incubated for 10 min., followed by initiation of the enzymatic reaction by adding ATP and the substrate. The reaction mixture was incubated at 30° C. for 30 min. At the end of incubation, the reaction was terminated by transferring 25 μl of the reaction mixture to 150 μl of 10% glutathione Sepharose® slurry (Amersham #27-4574-01) containing 135 mM EDTA. The reaction product was captured on the affinity resin, and washed on a filtration plate (Millipore, MABVNOB50) with phosphate buffered saline for six times to remove free radionucleotide. The incorporation of ^33P into ATF2 was quantified on a microplate scintillation counter (Packard Topcount). Compound inhibition potency on JNK was measured by IC50 value generated from ten concentration inhibition curves fitted into the 3-parameter model: % inhibition=Maximum/(1+(IC50/[Inhibitor])^slope). Data were analyzed on Microsoft Excel for parameter estimation.

Human JNK2α2, sequence (P45984 whole entry): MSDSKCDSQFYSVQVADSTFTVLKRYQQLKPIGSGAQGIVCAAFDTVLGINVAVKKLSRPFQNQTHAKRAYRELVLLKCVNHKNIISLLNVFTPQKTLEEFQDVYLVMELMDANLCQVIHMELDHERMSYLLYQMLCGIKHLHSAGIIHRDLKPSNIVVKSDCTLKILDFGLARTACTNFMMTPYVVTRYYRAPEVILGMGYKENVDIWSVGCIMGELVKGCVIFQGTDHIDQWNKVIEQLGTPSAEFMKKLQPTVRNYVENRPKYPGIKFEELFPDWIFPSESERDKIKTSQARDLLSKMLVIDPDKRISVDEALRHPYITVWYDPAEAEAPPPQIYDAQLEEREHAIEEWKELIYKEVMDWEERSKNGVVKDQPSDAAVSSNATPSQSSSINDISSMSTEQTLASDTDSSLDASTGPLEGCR

As to `CS(=O)(=O)N[C@H]1CC[C@H](Nc2nccc(-n3ccc4c(N5CCNCC5)cccc43)n2)CC1` [Compound I-1, N-{4-[4-(4-Piperazin-1-yl-indol-1-yl)-pyrimidin-2-ylamino]-cyclohexyl}-methanesulfonamide], the IC50 stood at 1430 nM.
The same measure for `CS(=O)(=O)N[C@H]1CC[C@H](Nc2nccc(-n3ccc4c(N5CCN(S(C)(=O)=O)CC5)cccc43)n2)CC1` [Compound I-3, N-(4-{4-[4-(4-Methanesulfonyl-piperazin-1-yl)-indol-1-yl]-pyrimidin-2-ylamino}-cyclohexyl)-methanesulfonamide]: 182 nM; for `CS(=O)(=O)N[C@H]1CC[C@H](Nc2nccc(-n3ccc4c(N5CCN(C(N)=O)CC5)cccc43)n2)CC1` [Compound I-7, 4-{1-[2-(4-Methanesulfonylamino-cyclohexylamino)-pyrimidin-4-yl]-1H-indol-4-yl}-piperazine-1-carboxylic acid amide]: 86.1 nM; for `CS(=O)(=O)N[C@H]1CC[C@H](Nc2nccc(-n3ccc4c(N5CCN(S(N)(=O)=O)CC5)cccc43)n2)CC1` [Compound I-8, 4-{1-[2-(4-Methanesulfonylamino-cyclohexylamino)-pyrimidin-4-yl]-1H-indol-4-yl}-piperazine-1-sulfonic acid amide]: 82.3 nM.
`N#CCC(=O)N1CCN(c2cccc3c2ccn3-c2ccnc(N[C@H]3CC[C@H](CO)CC3)n2)CC1` [Compound I-27, 3-(4-{1-[2-(4-Hydroxymethyl-cyclohexylamino)-pyrimidin-4-yl]-1H-indol-4-yl}-piperazin-1-yl)-3-oxo-propionitrile] yielded an IC50 of 12.8 nM.
The figure for `N#CCC(=O)N1CCN(c2cccc3c2ccn3-c2ccnc(N[C@H]3CC[C@H](CN4CC[C@H](O)C4)CC3)n2)CC1` [Compound I-28, 3-[4-(1-{2-[4-((S)-3-Hydroxy-pyrrolidin-1-ylmethyl)-cyclohexylamino]-pyrimidin-4-yl}-1H-indol-4-yl)-piperazin-1-yl]-3-oxo-propionitrile] is 55.5 nM; for `CC(=O)N1CCN(c2cccc3c2ccn3-c2ccnc(N[C@H]3CC[C@H](CN4CC[C@@H](O)C4)CC3)n2)CC1` [Compound I-29, 1-[4-(1-{2-[4-((R)-3-Hydroxy-pyrrolidin-1-ylmethyl)-cyclohexylamino]-pyrimidin-4-yl}-1H-indol-4-yl)-piperazin-1-yl]-ethanone] it is 525 nM; for `CCOC1CCN(C(=O)[C@H]2CC[C@H](Nc3nccc(-n4ccc5c(N6CCC(S(C)(=O)=O)CC6)cccc54)n3)CC2)CC1` [Compound I-30, (4-Ethoxy-piperidin-1-yl)-(4-{4-[4-(4-methanesulfonyl-piperidin-1-yl)-indol-1-yl]-pyrimidin-2-ylamino}-cyclohexyl)-methanone] it is 82.7 nM.
The figure for `N#CCC(=O)O[C@@H]1CCC[C@H](Nc2nccc(-n3ccc4c(N5CCN(C(=O)CC#N)CC5)cccc43)n2)C1` [Compound I-33, Cyano-acetic acid (1R,3S)-3-(4-{4-[4-(2-cyano-acetyl)-piperazin-1-yl]-indol-1-yl}-pyrimidin-2-ylamino)-cyclohexyl ester] is 198 nM.
The figure for `N#CCC(=O)N1CCN(c2cccc3c2ccn3-c2ccnc(N[C@H]3CCC[C@H](O)C3)n2)CC1` [Compound I-34, 3-(4-{1-[2-((1S,3S)-3-Hydroxy-cyclohexylamino)-pyrimidin-4-yl]-1H-indol-4-yl}-piperazin-1-yl)-3-oxo-propionitrile] is 89.2 nM; for `N#CCC(=O)N1CCN(c2cccc3c2ccn3-c2ccnc(N[C@H]3CCC[C@@H](O)C3)n2)CC1` [Compound I-35, 3-(4-{1-[2-((1S,3R)-3-Hydroxy-cyclohexylamino)-pyrimidin-4-yl]-1H-indol-4-yl}-piperazin-1-yl)-3-oxo-propionitrile] it is 177 nM.
The compound `N#CCC(=O)O[C@H]1CCC[C@H](Nc2nccc(-n3ccc4c(N5CCN(C(=O)CC#N)CC5)cccc43)n2)C1` [Compound I-36, Cyano-acetic acid (1S,3S)-3-(4-{4-[4-(2-cyano-acetyl)-piperazin-1-yl]-indol-1-yl}-pyrimidin-2-ylamino)-cyclohexyl ester] came in with an IC50 of 168 nM.
The figure for `N#CCC(=O)N1CCN(c2cccc3c2ccn3-c2ccnc(NC3CCCCC3)n2)CC1` [Compound I-38, 3-{4-[1-(2-Cyclohexylamino-pyrimidin-4-yl)-1H-indol-4-yl]-piperazin-1-yl}-3-oxo-propionitrile] is 42.8 nM; for `COCCO[C@H]1CC[C@H](Nc2nccc(-n3ccc4c(N5CCN(C(C)=O)CC5)cccc43)n2)CC1` [Compound I-39, 1-[4-(1-{2-[4-(2-Methoxy-ethoxy)-cyclohexylamino]-pyrimidin-4-yl}-1H-indol-4-yl)-piperazin-1-yl]-ethanone] it is 406 nM; for `COCCO[C@H]1CC[C@H](Nc2nccc(-n3ccc4c(N5CCN(C(=O)CC#N)CC5)cccc43)n2)CC1` [Compound I-40, 3-[4-(1-{2-[4-(2-Methoxy-ethoxy)-cyclohexylamino]-pyrimidin-4-yl}-1H-indol-4-yl)-piperazin-1-yl]-3-oxo-propionitrile] it is 35 nM.
Compound `CC(=O)N1CCN(c2cccc3c2ccn3-c2ccnc(N[C@H]3CC[C@H](C(C)(C)O)CC3)n2)CC1` [Compound I-43, 1-[4-(1-{2-[4-(1-Hydroxy-1-methyl-ethyl)-cyclohexylamino]-pyrimidin-4-yl}-1H-indol-4-yl)-piperazin-1-yl]-ethanone] had an IC50 of 432 nM.
The figure for `CS(=O)(=O)N(CCO)[C@H]1CC[C@H](Nc2nccc(-n3ccc4c(N5CCN(C(=O)CC#N)CC5)cccc43)n2)CC1` [Compound I-44, N-[4-(4-{4-[4-(2-Cyano-acetyl)-piperazin-1-yl]-indol-1-yl}-pyrimidin-2-ylamino)-cyclohexyl]-N-(2-hydroxy-ethyl)-methanesulfonamide] is 19.2 nM; for `CC(C)(O)[C@H]1CC[C@H](Nc2nccc(-n3ccc4c(N5CCN(C(=O)CC#N)CC5)cccc43)n2)CC1` [Compound I-45, 3-[4-(1-{2-[4-(1-Hydroxy-1-methyl-ethyl)-cyclohexylamino]-pyrimidin-4-yl}-1H-indol-4-yl)-piperazin-1-yl]-3-oxo-propionitrile] it is 33.4 nM.
The figure for `CCN1CCN(C(=O)[C@H]2CC[C@H](Nc3nccc(-n4ccc5c(N6CCC(S(C)(=O)=O)CC6)cccc54)n3)CC2)CC1` [Compound I-46, (4-Ethyl-piperazin-1-yl)-(4-{4-[4-(4-methanesulfonyl-piperidin-1-yl)-indol-1-yl]-pyrimidin-2-ylamino}-cyclohexyl)-methanone] is 36 nM; for `CS(=O)(=O)C1CCN(c2cccc3c2ccn3-c2ccnc(N[C@H]3CC[C@H](C(=O)N4CCN(C5CC5)CC4)CC3)n2)CC1` [Compound I-47, (4-Cyclopropyl-piperazin-1-yl)-(4-{4-[4-(4-methanesulfonyl-piperidin-1-yl)-indol-1-yl]-pyrimidin-2-ylamino}-cyclohexyl)-methanone] it is 29.6 nM; for `CC(C)(C)N1CCN(C(=O)[C@H]2CC[C@H](Nc3nccc(-n4ccc5c(N6CCC(S(C)(=O)=O)CC6)cccc54)n3)CC2)CC1` [Compound I-48, (4-tert-Butyl-piperazin-1-yl)-(4-{4-[4-(4-methanesulfonyl-piperidin-1-yl)-indol-1-yl]-pyrimidin-2-ylamino}-cyclohexyl)-methanone] it is 54.5 nM.
The figure for `CS(=O)(=O)C1CCN(c2cccc3c2ccn3-c2ccnc(N[C@H]3CC[C@H](C(=O)N4CCN(C5CCC5)CC4)CC3)n2)CC1` [Compound I-49, (4-Cyclobutyl-piperazin-1-yl)-(4-{4-[4-(4-methanesulfonyl-piperidin-1-yl)-indol-1-yl]-pyrimidin-2-ylamino}-cyclohexyl)-methanone] is 59.8 nM; for `CS(=O)(=O)C1CCN(c2cccc3c2ccn3-c2ccnc(N[C@H]3CC[C@H](C(=O)N4CCN5CCCCC5C4)CC3)n2)CC1` (stereo partly shown) [Compound I-50, (4-{4-[4-(4-Methanesulfonyl-piperidin-1-yl)-indol-1-yl]-pyrimidin-2-ylamino}-cyclohexyl)-(octahydro-pyrido[1,2-a]pyrazin-2-yl)-methanone] it is 15.6 nM; for `CS(=O)(=O)C1CCN(c2cccc3c2ccn3-c2ccnc(N[C@H]3CC[C@H](C(=O)N4CCN5CCCC5C4)CC3)n2)CC1` (stereo partly shown) [Compound I-52, (Hexahydro-pyrrolo[1,2-a]pyrazin-2-yl)-(4-{4-[4-(4-methanesulfonyl-piperidin-1-yl)-indol-1-yl]-pyrimidin-2-ylamino}-cyclohexyl)-methanone] it is 21.8 nM.
Turning to `CS(=O)(=O)C1CCN(c2cccc3c2ccn3-c2ccnc(N[C@H]3CC[C@H](C(=O)N4CCn5ccnc5C4)CC3)n2)CC1` [Compound I-54, (5,6-Dihydro-8H-imidazo[1,2-a]pyrazin-7-yl)-(4-{4-[4-(4-methanesulfonyl-piperidin-1-yl)-indol-1-yl]-pyrimidin-2-ylamino}-cyclohexyl)-methanone], the IC50 was 15.2 nM.
